We go through 22 molecules from patent US20240208962A1, “MICROBIOCIDAL QUINOLINE/QUINOXALINE BENZOTHIAZINE DERIVATIVES” (SYNGENTA CROP PROTECTION AG, priority 2021, published 2024).

For series [1], the system named is Botrytis cinerea. In words: Comparative: Botrytis cinerea / tomato / preventative. It is filed as in vivo. Particulars: rate of application 200 ppm, Botrytis cinerea on tomato, emulsifiable concentrate, 5-6 days after application.
The subject of series [2] is Mycosphaerella graminicola (Septoria tritici). The series can be described thus: Comparative: Mycosphaerella graminicola (Septoria tritici) on wheat / preventative, emulsifiable concentrate. It is filed as in vivo. Particulars: rate of application 60 ppm, Mycosphaerella graminicola on wheat cv. Riband, 16 to 19 days after application.
The test system of series [3] is Colletotrichum lagenarium. In words: Comparative: Colletotrichum lagenarium / cucumber / preventative (Anthracnose). The series is classed as in vivo. Particulars: rate of application 200 ppm, Colletotrichum lagenarium on cucumber cv. Wisconsin, emulsifiable concentrate, 6-8 days after application.
Series [4] relates to Venturia inaequalis. In words: Comparative: Venturia inaequalis / apple / preventative (Scab on apple). Particulars: rate of application 200 ppm, Venturia inaequalis on apple seedlings, emulsifiable concentrate, 11-13 days after application. The series is classed as in vivo.
Series [5] deals with Mycosphaerella graminicola (Septoria tritici). The series can be described thus: Mycosphaerella graminicola (Septoria tritici) on wheat / preventative. It is filed as in vivo. Particulars: Zymoseptoria tritici, wheat plants cv. Riband, preventative spray, 16 to 19 days after application, read-out: control of Mycosphaerella graminicola compared to untreated control.
Series [6] relates to Fusarium culmorum. In words: microbe, parasite or virus in culture. It is filed as cell-based. Particulars: read-out: control of Fusarium culmorum (inhibition of growth, photometric).
In series [7] the test system is Botryotinia fuckeliana (Botrytis cinerea). In words: Botryotinia fuckeliana (Botrytis cinerea) / liquid culture (Gray mould). The series is classed as cell-based. The settings on record: liquid culture Vogels broth, 3-4 days after application, read-out: control of Botryotinia fuckeliana (inhibition of growth, photometric).
The subject of series [8] is Glomerella lagenarium (Colletotrichum lagenarium). The series can be described thus: Glomerella lagenarium (Colletotrichum lagenarium) / liquid culture (Anthracnose). The series is classed as cell-based. The settings on record: Colletotrichum orbiculare, liquid culture PDB, 3-4 days after application, read-out: control of Glomerella lagenarium (inhibition of growth, photometric).

In series [9] the test system is Monographella nivalis (Microdochium nivale). The series can be described thus: Monographella nivalis (Microdochium nivale) / liquid culture (foot rot cereals). The series is classed as cell-based. Particulars: liquid culture PDB, 4 to 5 days after application, read-out: control of Monographella nivalis (inhibition of growth, photometric).

With `CC1(C)N=C(c2cnc3c(F)cccc3c2)c2cccc(F)c2S1` [Comparative compound A, reference compound], the “Efficacy (% control)” value worked out at 95 % control in series [1], 11 % control in series [2], 80 % control in series [3] and 100 % control in [4].
On to `Cc1ccc2c(c1F)SC(C)(C)N=C2c1cnc2c(F)cccc2c1` [Compound E.08, 8-fluoro-4-(8-fluoro-3-quinolyl)-2,2,7-trimethyl-1,3-benzothiazine], for which the melting point lay in the range of 159 to 161 °C. In addition, in [5], the pest or weed control at 60 ppm was ≥ 80%. Besides, the “Efficacy (% control)” value in series [1] was 97 % control. The inhibition at 20 ppm in series [6] is ≥ 80%. Also, the inhibition at 20 ppm in series [7] was ≥ 80%. Further, in [2], the “Efficacy (% control)” value was determined as 89 % control. For the same molecule, the inhibition at 20 ppm in series [8] was ≥ 80%. Also, the “Efficacy (% control)” value in [4] is 80 % control. The inhibition at 20 ppm in [9] was ≥ 80%.
In the case of `Cc1ccc2c(c1Cl)SC(C)(C)N=C2c1cnc2c(F)cccc2c1` [Compound E.13, 8-chloro-4-(8-fluoro-3-quinolyl)-2,2,7-trimethyl-1,3-benzothiazine], the pest or weed control at 60 ppm in series [5] was ≥ 80%. For the same molecule, the inhibition at 20 ppm in series [6], in [7], in series [8] and in [9] was ≥ 80% in each case. Also, the “Efficacy (% control)” value in series [2] is reported as 96 % control.
Take `Cc1cccc2c1SC(C)(C)N=C2c1cnc2c(F)cccc2c1` [Compound E.14, 4-(8-fluoro-3-quinolyl)-2,2,8-trimethyl-1,3-benzothiazine]: the pest or weed control at 60 ppm in series [5] is ≥ 80%. The “Efficacy (% control)” value in series [1] came to 93 % control; in series [2] it was 83 % control; in series [3] it was 97 % control; in series [4], 100 % control. Further, the inhibition at 20 ppm in [6], in series [7], in [8] and in series [9] was ≥ 80% each time.
Regarding `CC1(C)N=C(c2cnc3c(F)cccc3c2)c2ccc(F)c(F)c2S1` [E.03, 7,8-difluoro-4-(8-fluoro-3-quinolyl)-2,2-dimethyl-1,3-benzothiazine], in series [5], the pest or weed control at 60 ppm was ≥ 80%. For the same molecule, the inhibition at 20 ppm in [6], in series [7], in [8] and in series [9] was ≥ 80% each time.
As to `CSc1cccc2c1SC(C)(C)N=C2c1cnc2c(F)cccc2c1` [E.04, 4-(8-fluoro-3-quinolyl)-2,2-dimethyl-8-methylsulfanyl-1,3-benzothiazine], the inhibition at 20 ppm in series [6], in [7], in series [8] and in [9] was ≥ 80% each time.
For `CC1(C)N=C(c2cnc3c(F)cccc3c2)c2ccc(Cl)c(Cl)c2S1` [E.05, 7,8-dichloro-4-(8-fluoro-3-quinolyl)-2,2-dimethyl-1,3-benzothiazine], in series [5], the pest or weed control at 60 ppm was ≥ 80%. The inhibition at 20 ppm in series [6], in series [7], in series [8] and in [9] was ≥ 80% each time.
For the molecule `Cc1cccc2c1S[C@](C)(C(F)F)N=C2c1cnc2c(F)cccc2c1` [E.06, (2R)-2-(difluoromethyl)-4-(8-fluoro-3-quinolyl)-2,8-dimethyl-1,3-benzothiazine], the inhibition at 20 ppm in [6], in [7], in series [8] and in [9] was ≥ 80% in each case.
Consider `CC1(C(F)F)N=C(c2cnc3c(F)cccc3c2)c2cccc(Cl)c2S1` (centres unmarked) [E.09, 8-chloro-2-(difluoromethyl)-4-(8-fluoro-3-quinolyl)-2-methyl-1,3-benzothiazine], for which the inhibition at 20 ppm in series [6], in [7], in series [8] and in [9] was ≥ 80% each time.
Take `Cc1ccc2c(c1C#N)SC(C)(C)N=C2c1cnc2c(F)cccc2c1` [E.10, 4-(8-fluoro-3-quinolyl)-2,2,7-trimethyl-1,3-benzothiazine-8-carbonitrile]: the inhibition at 20 ppm in series [6] and in series [7] was ≥ 80% throughout.
Take `Cc1ccc2c(c1C)SC(C)(C)N=C2c1cnc2c(F)cccc2c1` [E.11, 4-(8-fluoro-3-quinolyl)-2,2,7,8-tetramethyl-1,3-benzothiazine]: in series [5], the pest or weed control at 60 ppm is ≥ 80%. Besides, the inhibition at 20 ppm in series [6], in series [7], in series [8] and in [9] was ≥ 80% throughout.
As for `Cc1cccc2c1SC(C)(C(F)F)N=C2c1cnc2c(F)cccc2c1` (centres unmarked) [E.15, 2-(difluoromethyl)-4-(8-fluoro-3-quinolyl)-2,8-dimethyl-1,3-benzothiazine], the inhibition at 20 ppm in [6], in [7], in [8] and in series [9] was ≥ 80% throughout.
For the molecule `Cc1ccc2c(c1F)SC(C)(C)N=C2c1cnc2c(F)c(F)ccc2c1` [E.16, 4-(7,8-difluoro-3-quinolyl)-8-fluoro-2,2,7-trimethyl-1,3-benzothiazine], the pest or weed control at 60 ppm in [5] is ≥ 80%. The inhibition at 20 ppm in [6], in [7] and in series [9] was ≥ 80% in each case.
Consider `CC1(C)N=C(c2cnc3c(F)cccc3n2)c2cccc(Cl)c2S1` [E.17, 8-chloro-4-(5-fluoroquinoxalin-2-yl)-2,2-dimethyl-1,3-benzothiazine], for which the inhibition at 20 ppm in series [6], in series [7], in series [8] and in series [9] was ≥ 80% throughout.
Take `CC1(Cc2ccc(Cl)nc2)N=C(c2cnc3c(F)c(F)ccc3c2)c2cccc(Cl)c2S1` (centres unmarked) [E.18, 8-chloro-2-[(6-chloro-3-pyridyl)methyl]-4-(7,8-difluoro-3-quinolyl)-2-methyl-1,3-benzothiazine]: the inhibition at 20 ppm in series [7], in [8] and in series [9] was ≥ 80% in each case.
For the molecule `CC1(Cc2ccc(Cl)nc2)N=C(c2cnc3c(F)cccc3c2)c2cccc(Cl)c2S1` (centres unmarked) [E.19, 8-chloro-2-[(6-chloro-3-pyridyl)methyl]-4-(8-fluoro-3-quinolyl)-2-methyl-1,3-benzothiazine], the inhibition at 20 ppm in [6], in series [7], in series [8] and in series [9] was ≥ 80% each time.
Take `Cc1nc2c(F)cccc2cc1C1=NC(C)(C)Sc2c(Cl)cccc21` [E.20, 8-chloro-4-(8-fluoro-2-methyl-3-quinolyl)-2,2-dimethyl-1,3-benzothiazine]: the melting point lay in the range of 134 to 136 °C. Further, the inhibition at 20 ppm in series [7] was ≥ 80%. Moreover, the inhibition at 20 ppm in [8] was ≥ 80%. Also, the inhibition at 20 ppm in series [9] was ≥ 80%.
`Cc1c(Cl)ccc2c1SC(C)(C)N=C2c1cnc2c(F)c(F)ccc2c1` [E.21, 7-chloro-4-(7,8-difluoro-3-quinolyl)-2,2,8-trimethyl-1,3-benzothiazine] gave a melting point of 161 to 163 °C. In series [6], the inhibition at 20 ppm was ≥ 80%. The inhibition at 20 ppm in series [7] was ≥ 80%. The inhibition at 20 ppm in series [9] was ≥ 80%.
`Cc1c(C#N)ccc2c1SC(C)(C)N=C2c1cnc2c(F)c(F)ccc2c1` [E.22, 4-(7,8-difluoro-3-quinolyl)-2,2,8-trimethyl-1,3-benzothiazine-7-carbonitrile] registered a melting point of 216 to 218 °C. The inhibition at 20 ppm in series [7] was ≥ 80%.
For `Cc1c(C#N)ccc2c1SC(C)(C)N=C2c1cnc2c(F)cccc2c1` [E.23, 4-(8-fluoro-3-quinolyl)-2,2,8-trimethyl-1,3-benzothiazine-7-carbonitrile], the melting point fell in the range of 88 to 90 °C. The inhibition at 20 ppm in series [6] is ≥ 80%. In series [7], the inhibition at 20 ppm was ≥ 80%. Moreover, in [9], the inhibition at 20 ppm is ≥ 80%.
For the molecule `COc1c(Cl)ccc2c1SC(C)(C)N=C2c1cnc2c(F)cccc2c1` [E.24, 7-chloro-4-(8-fluoro-3-quinolyl)-8-methoxy-2,2-dimethyl-1,3-benzothiazine], the inhibition at 20 ppm in series [6], in series [7] and in series [9] was ≥ 80% each time.
For the molecule `Cc1c(Cl)ccc2c1SC(C)(C)N=C2c1cnc2c(F)cccc2c1` [E.25, 7-chloro-4-(8-fluoro-3-quinolyl)-2,2,8-trimethyl-1,3-benzothiazine], the melting point is 68 to 70 °C. In addition, the pest or weed control at 60 ppm in series [5] is ≥ 80%. Besides, the inhibition at 20 ppm in [6] was ≥ 80%. Moreover, the inhibition at 20 ppm in series [7] is ≥ 80%. Also, in series [8], the inhibition at 20 ppm is ≥ 80%.

Broadly, the melting point is the temperature of the solid-liquid transition. As usually defined, the inhibition is the percentage by which the read-out fell short of the control.
